For assay [1], the target named is T1, B1R receptor of the rat (bradykinin 1 receptor) (Rattus norvegicus, UniProt P97583).
T1 construct: host or cells: CHO K1 cells (rB1R cells)
T1 sequence (P97583 1-337): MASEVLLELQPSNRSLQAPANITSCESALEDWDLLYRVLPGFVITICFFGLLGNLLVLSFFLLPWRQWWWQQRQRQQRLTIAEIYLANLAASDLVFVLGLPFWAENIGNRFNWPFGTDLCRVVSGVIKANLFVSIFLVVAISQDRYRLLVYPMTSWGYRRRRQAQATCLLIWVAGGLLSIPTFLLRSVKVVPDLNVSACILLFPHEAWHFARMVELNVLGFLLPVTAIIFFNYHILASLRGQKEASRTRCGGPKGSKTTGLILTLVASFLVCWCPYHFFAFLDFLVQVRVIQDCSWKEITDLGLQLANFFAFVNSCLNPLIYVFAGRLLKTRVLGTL
The assay is described as follows: FLIPR Ca2+ assay (Fluo-4) on CHO K1 cells stably transfected with the B1R gene of the rat; % activation and % inhibition at 10 μM. The conditions noted are these: CHO K1 rB1R cells, Ca2+ inflow after 100 nM Des-Arg9-bradykinin; for inhibition at 10 µM: CHO-K1, test substance 10 μM, read-out: B1R antagonism, rat [10 μM] % inhibition. The class given is cell-based. The protocol:
The agonistic or antagonistic action of substances can be quantified on the bradykinin receptor 1 (B1R) of the species human and rat with ectopically expressing cell lines (CHO K1 cells) and with the aid of a Ca^2+-sensitive dye (Fluo-4) using a fluorescent imaging plate reader (FLIPR). The indication in % activation is based on the Ca^2+ signal after addition of Lys-Des-Arg^9-bradykinin (0.5 nM) or Des-Arg^9-bradykinin (100 nM). Antagonists result in a suppression of the Ca^2+ influx following administration of the agonist. The % inhibition in comparison with the maximum achievable inhibition is indicated.
Functional Investigation on the Bradykinin 1 Receptor (B1R)
The agonistic or antagonistic action of substances can be determined on the bradykinin 1 receptor (B1R) of the human and rat species with the following assay. According to this assay, the Ca^2+ inflow through the channel is quantified with the aid of a Ca^2+-sensitive dyes (Fluo-4 type, Molecular Probes Europe BV, Leiden, The Netherlands) in a fluorescent imaging plate reader (FLIPR, Molecular Devices, Sunnyvale, USA).
Chinese Hamster Ovary cells (CHO K1 cells) which are stably transfected with the human B1R gene (hB1R cells, Euroscreen s.a., Gosselies, Belgium) or the B1R gene of the rat (rB1R cells, Axxam, Milan, Italy) are used. For functional investigations, these cells are plated-out on black 96-well plates with a clear base (BD Biosciences, Heidelberg, Germany) in a density of 20,000-25,000 cells/well. Overnight, the cells are incubated at 37° C. and 5% CO2 in culture medium (hB1R cells: Nutrient Mixture Ham's F12, Gibco Invitrogen GmbH, Karlsruhe, Germany; rB1R cells: D-MEM/F12, Gibco Invitrogen, Karlsruhe, Germany) with 10 vol. % FBS (foetal bovine serum, Gibco Invitrogen GmbH, Karlsruhe, Germany). On the following day, the cells are loaded with 2.13 μM Fluo-4 (Molecular Probes Europe BV, Leiden, The Netherlands) in HBSS buffer (Hank's buffered saline solution, Gibco Invitrogen GmbH, Karlsruhe, Germany) […] (Sigma-Aldrich, Taufkirchen, Germany) and 10 mM HEPES (Sigma-Aldrich, Taufkirchen, Germany) for 60 min at 37° C. The plates are subsequently washed 2× with HBSS buffer, and HBSS buffer which additionally contains 0.1% BSA (bovine serum albumin; Sigma-Aldrich, Taufkirchen, Germany), 5.6 mM glucose and 0.05% gelatine (Merck KGaA, Darmstadt, Germany) is added. After a further incubation of 20 minutes at room temperature, the plates are inserted into the FLIPR for Ca^2+ measurement. The Ca^2+-dependent fluorescence is measured here before and after addition of substances (λex=488 nm, λem=540 nm). The quantification is effected by measurement of the highest fluorescence intensity (FC, fluorescence counts) over time.
The FLIPR protocol comprises 2 additions of substance. Test substances (10 μM) are first pipetted on to the cells and the Ca^2+ inflow is compared with the control (hB1R: Lys-Des-Arg^9-bradykinin 0.5 nM; rB1R: Des-Arg^9-bradykinin 100 nM). The value in % activation based on the Ca^2+ signal after addition of Lys-Des-Arg^9-bradykinin (0.5 nM) or Des-Arg^9-bradykinin (100 nM) is obtained therefrom. After incubation for 10 minutes, 0.5 nM Lys-Des-Arg^9-bradykinin (hB1R) or 100 nM Des-Arg^9-bradykinin (rB1R) are applied and the inflow of Ca^2+ is likewise determined. Antagonists lead to a suppression of the Ca^2+ inflow. % inhibition compared with the maximum inhibition which can be achieved is calculated. The compounds show a good activity on the human and on the rat receptor. The following data were determined by way of example: […]

Assay [2] has as its target T2, human B1R receptor (bradykinin 1 receptor) (Homo sapiens, UniProt P46663).
T2 construct: host or cells: CHO K1 cells (hB1R cells)
T2 sequence (P46663 1-353): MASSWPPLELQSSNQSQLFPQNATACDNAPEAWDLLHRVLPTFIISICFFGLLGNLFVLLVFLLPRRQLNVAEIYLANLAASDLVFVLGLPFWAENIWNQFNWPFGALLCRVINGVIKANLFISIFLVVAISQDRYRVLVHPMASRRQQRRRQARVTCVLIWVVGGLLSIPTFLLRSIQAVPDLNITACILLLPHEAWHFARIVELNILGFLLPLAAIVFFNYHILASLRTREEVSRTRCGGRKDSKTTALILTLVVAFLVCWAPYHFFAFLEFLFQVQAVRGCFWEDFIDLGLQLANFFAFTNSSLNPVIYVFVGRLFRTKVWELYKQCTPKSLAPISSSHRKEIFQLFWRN
The assay can be described thus: FLIPR Ca2+ assay (Fluo-4) on CHO K1 cells stably transfected with the human B1R gene; % activation and % inhibition at 10 μM. In kind it is cell-based. The conditions noted are these: CHO K1 hB1R cells, Ca2+ inflow after 0.5 nM Lys-Des-Arg9-bradykinin; for inhibition at 10 µM: CHO-K1, test substance 10 μM, read-out: B1R antagonism, human [10 μM] % inhibition. In a few lines: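 Fluo-4 Ca2+ flux on FLIPR in stable hB1R or rB1R CHO K1 lines, two additions. Agonism: 10 µM compound versus 0.5 nM Lys-Des-Arg9-BK (human) or 100 nM Des-Arg9-BK (rat); antagonism: same agonists applied 10 min later, suppression expressed against maximum achievable inhibition.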

`COc1cc(C)c(S(=O)(=O)N2CCCC2COCC(=O)N2CCC(O)(c3ccc(Cl)c(C(F)(F)F)c3)CC2)c(C)c1` (stereo not shown) [Example 213, 1-(4-(4-chloro-3-(trifluormethyl)phenyl)-4-hydroxypiperidin-1-yl)-2-((1-(4-methoxy-2,6-dimethylphenylsulfonyl)pyrrolidin-2-yl)methoxy)ethanone]: the “B1R antagonism, rat [10 μM] % inhibition” value in assay [1] (test substance 10 μM) is recorded as 101.25%. Besides, the “B1R antagonism, human [10 μM] % inhibition” value in assay [2] (test substance 10 μM) amounted to 103.55%.
Turning to `O=C(COCC1CCCN1S(=O)(=O)c1c(Cl)cccc1Cl)N1CCC(O)(c2ccc(Cl)c(C(F)(F)F)c2)CC1` (stereo not shown) [Example 218, 1-(4-(4-chloro-3-(trifluoromethyl)phenyl)-4-hydroxypiperidin-1-yl)-2-((1-(2,6-dichlorophenylsulfonyl)pyrrolidin-2-yl)methoxy)ethanone], the inhibition (commonly the change of the read-out against control, counted positive when it falls) at 10 µM in assay [1] amounted to 102%; in assay [2], 103%.
`Cc1cc(S(=O)(=O)N(C)CCOCC(=O)N2CCC(O)(c3cccnc3)CC2)c(Cl)cc1Cl` [Example 199, 2,4-dichloro-N-(2-(2-(4-hydroxy-4-(pyridin-3-yl)piperidin-1-yl)-2-oxoethoxy)ethyl)-N,5-dimethylphenylsulfonamide]: the values for the inhibition at 10 µM in assay [1] and in assay [2] were 98.2% and 105%, respectively.
With `O=C(COCC1CCCN1S(=O)(=O)c1c(Cl)cccc1Cl)N1CCC(O)(c2cccnc2)CC1` (stereo not shown) [Example 197, 2-((1-(2,6-dichlorophenylsulfonyl)pyrrolidin-2-yl)methoxy)-1-(4-hydroxy-4-(pyridin-3-yl)piperidin-1-yl)ethanone], the inhibition at 10 µM in assay [1] was 96.4%; in assay [2], 103%.
As to `Cc1ccc(F)cc1S(=O)(=O)N(C)CCOCC(=O)N1CCC(O)(Cc2ccccc2)CC1` [Example 62, N-{2-[2-(4-benzyl-4-hydroxy-piperidin-1-yl)-2-oxo-ethoxy]-ethyl}-5-fluoro-2,N-dimethyl-phenylsulfonamide], the inhibition at 10 µM in assay [1] was 22.9%; in assay [2], 7.47%.
In the case of `COc1cc(C)c(S(=O)(=O)N2CCC(COCC(=O)N3CCC(O)(c4cccnc4)CC3)C2)c(C)c1` (stereo not shown) [Example 194, 1-(4-hydroxy-4-(pyridin-3-yl)piperidin-1-yl)-2-((1-(4-methoxy-2,6-dimethylphenylsulfonyl)pyrrolidin-3-yl)methoxy)ethanone], the results for the inhibition at 10 µM in assay [1] and in assay [2] were 82.8% and 104%, respectively.
Take `Cc1cc(S(=O)(=O)N(C)CCOCC(=O)N2CCC(O)(c3ccc(Br)cc3)CC2)c(C)s1` [Example 257, N-(2-(2-(4-(4-bromophenyl)-4-hydroxypiperidin-1-yl)-2-oxoethoxy)ethyl)-N,2,5-trimethylthiophene-3-sulfonamide]: the inhibition at 10 µM in assay [1] was found to be 101%; in assay [2], 49.4%.
As to `O=C(COCC1CCCCN1S(=O)(=O)c1cccc2ccccc12)N1CCC(O)(c2ccc(Cl)cc2)CC1` (stereo not shown) [Example 63, 1-(4-(4-chlorophenyl)-4-hydroxypiperidin-1-yl)-2-((1-(naphthalen-1-ylsulfonyl)piperidin-2-yl)methoxy)ethanone], the inhibition at 10 µM in assay [1] was 91.8%; in assay [2], 84.8%.
Consider `COc1cc(C)c(S(=O)(=O)N(CCOCC(=O)N2CCC(O)(c3cccc(C(F)(F)F)c3)CC2)CC(C)C)c(C)c1C` [Example 212, N-(2-(2-(4-hydroxy-4-(3-(trifluoromethyl)phenyl)piperidin-1-yl)-2-oxoethoxy)ethyl)-N-isobutyl-4-methoxy-2,3,6-trimethylphenylsulfonamide], for which the inhibition at 10 µM was found to be 100% in assay [1] and 105% in assay [2].
On to `COc1cc(C)c(S(=O)(=O)N(C)CCOCCC(=O)N2CCC(O)(c3ccc(Cl)cc3)CC2)c(C)c1` [Example 275, N-(2-(3-(4-(4-chlorophenyl)-4-hydroxypiperidin-1-yl)-3-oxopropoxy)ethyl)-4-methoxy-N,2,6-trimethylphenylsulfonamide], for which the inhibition at 10 µM in assay [1] amounted to 92.4%; in assay [2] it was 100%.
`Cc1cc(C)c(S(=O)(=O)N2Cc3ccccc3CC2COCC(=O)N2CCC(O)(Cc3ccccc3)CC2)c(C)c1` (stereo not shown) [Example 201, 1-(4-benzyl-4-hydroxypiperidin-1-yl)-2-((2-(mesitylsulfonyl)-1,2,3,4-tetrahydroisoquinolin-3-yl)methoxy)ethanone]: the inhibition at 10 µM was 80% in assay [1] and 14.9% in assay [2].
Consider `Cc1cc(S(=O)(=O)N(C)CCOCC(=O)N2CCC(O)(c3ccc(Cl)cc3)CC2)c(C)s1` [Example 256, N-(2-(2-(4-(4-chlorophenyl)-4-hydroxypiperidin-1-yl)-2-oxoethoxy)ethyl)-N,2,5-trimethylthiophene-3-sulfonamide], for which the inhibition at 10 µM in assay [1] is 90.7%; in assay [2], 56.3%.
Consider `COc1cc(C)c(S(=O)(=O)N(CCOCC(=O)N2CCC(O)(c3cccs3)CC2)CC2CC2)c(C)c1C` [Example 268, N-(cyclopropylmethyl)-N-(2-(2-(4-hydroxy-4-(thiophen-2-yl)piperidin-1-yl)-2-oxoethoxy)ethyl)-4-methoxy-2,3,6-trimethylphenylsulfonamide], for which the values for the inhibition at 10 µM in assay [1] and in assay [2] were 98.8% and 99.1%, respectively.
For `O=C(COCC1Cc2ccccc2CN1S(=O)(=O)c1ccc(Cl)cc1Cl)N1CCC(O)(Cc2ccccc2)CC1` (stereo not shown) [Example 81, 1-(4-benzyl-4-hydroxy-piperidin-1-yl)-2-[2-(2,4-dichloro-phenylsulfonyl)-1,2,3,4-tetrahydro-isoquinolin-3-ylmethoxy]-ethanone], the inhibition at 10 µM turned out to be 62.8% in assay [1] and 32.9% in assay [2].

These data come from patent US8580965B2, “Substituted sulfonamide compounds” (Gruenenthal GmbH, priority 2006, dated 2013).
